Results taken from publication PMC10044725, “Antioxidant, Anti-Inflammatory and Anti-Diabetic Activities of Tectona grandis Methanolic Extracts, Fractions, and Isolated Compounds” (Antioxidants, 2023).
Marks after values point to notes of the source that are not given here.

Columns and labels:
α-glucosidase = test: α-Glucosidase inhibition assay (pNPG); format: biochemical; conditions: for Inhibitory Rate (%): at a concentration of 50 µM; for IC50: compounds
Procedure: The inhibitory effect on α-glucosidase was measured according to the previous report method with slight modifications. The 20 mM sample dissolved in DMSO was diluted to 50 μM in PBS, 10 μL sample was mixed with 50 μL of 0.1 μ/mL α-glucosidase solution in 0.1 M phosphate buffer (pH 6.5) in a 96-well microplate and 10 μL PBS was used as a blank control. The mixture was incubated at 37 °C for 10 min before adding 40 µL of 5 mM 4-nitrophenyl-α-D-glucopyranoside to each well. After 30 min of incubation at 37 °C, the reaction was terminated by adding 50 μL of 0.1 M Na2CO3 to this mixture. The released 4-nitrophenol absorbance measurements were carried out using a microplate reader (SpectraMax190, USA) at 405 nm.

[1] = ABTS radical cation scavenging assay (Trolox equivalent)
Procedure: The ABTS radical cation (ABTS•+) scavenging activities were conducted in accordance with the instructions for the ABTS kit. The total antioxidant activity values were estimated using the Trolox equivalent antioxidant capacity test. The detection concentration of methanolic extract and different fractions was 80 μg/mL, and the detection concentration of compounds (1–23) was 50 μM. […] Then, 190 μL of ABTS working reagent was mixed with 10 μL sample and incubated at room temperature for 5 min. The absorbance was then measured using a microplate reader at 734 nm, and the scavenging activity was calculated according to Equation (2). The blank control group used DMSO to replace the sample. […] The analysis was performed in triplicates, 1.424, 0.0012 was a constant.

[2] = DPPH free radical scavenging assay; conditions: half scavenging concentration; for EC50: isolated compounds, read-out: DPPH Assay SC50
Procedure: The DPPH free radical scavenging activities of T. grandis methanolic extract, different fractions and its compounds were conducted according to Dr. Yang et al.. […] The absorbance was measured using a microplate reader at 517 nm, and ascorbic acid was used as a positive control. The DPPH scavenging activity was calculated according to the following formula: Scavenging activity (%) = [1 − (A1 − A2)/(A3 − A4)] × 100% (1) where A1 is the OD value of the tested samples, A2 is the OD value of the sample control, A3 is the OD value of the negative control and A4 is the OD value of the blank control. The analysis was performed in triplicates and the results were described as SC50 values.

[3] = Ferric reducing antioxidant power (FRAP) assay; conditions: Trolox equivalent
Procedure: The FRAP assay was determined in accordance with the instructions for the FRAP kit. The total antioxidant activity values were estimated using the Trolox equivalent antioxidant capacity test. Initially, the detection concentration of methanolic extract and different fractions was 80 μg/mL, and the detection concentration of compounds (1–23) was 50 μM. Then, 190 μL of FRAP working reagent was mixed with 10 μL sample and incubated at room temperature for 20 min. The absorbance was then measured using a microplate reader at 593 nm, and the scavenging activity was calculated according to Equation (3). The blank control group used DMSO to replace the sample. […] The analysis was performed in triplicates, 0.8054, 0.0134 was a constant.

pBR322 DNA = test: Prevention of AAPH-induced DNA oxidative damage; conditions: AAPH 20 mM; p < 0.0001 vs model
Procedure: The effects of T. grandis methanolic extract, different fractions and its compounds 15, 19 and 23 on the prevention of DNA oxidative damage were carried out using the method of Han et al.. Initially, 8 μL pBR322 DNA (50 μg/mL) in PBS (0.1 M, pH 6.8) was mixed with different concentrations of T. grandis fractions and its compounds (12 μL) and incubated in water at 37 °C for 30 min. Then, 5 μL AAPH (20 mM) was added to the mixture and the reaction continued for 60 min. The control group used the same volume of PBS (0.1 M, pH 6.8) to replace AAPH. The pre-treated samples were mixed with 5 × DNA loading buffer, and the mixture (8 μL) was taken for 1.0% agarose gel electrophoresis for 25 min. After electrophoresis, the gels were stained with ethidium bromide for 20 min. Finally, images were taken using a DNA gel imaging system (ChampChemi 610, Beijing sage creation Co., Ltd. Beijing, China).

[4] = methanolic extract and fractions at 80 μg/mL

Inhibitory Rate (%) (α-glucosidase)	EC50 [2] [µM]	IC50 (α-glucosidase) [µM]	SMILES	ABTS Assay ([1]; compounds at 50 μM)	ABTS Assay [1, 4]	DPPH Assay SC50 ([2]; methanolic extract and fractions, ascorbic acid positive control)	FRAP Assay ([3]; compounds at 50 μM)	FRAP Assay [3, 4]	concentration at which a protective effect against DNA oxidative damage begins (pBR322 DNA) [mM]
29.06 ± 1.86 ^cd %	5.22 ± 0.19	> 50	O=c1cc(-c2ccc(O)cc2)oc2cc(O)cc(O)c12 [Compound 3, apigenin]	0.05 ± 0.00 ^d mmol Trolox/L			0.01 ± 0.01 ^c mmol Trolox/L		
12.96 ± 2.08 ^d %	22.1 ± 1.24	> 50	O=c1cc(-c2ccc(O)c(O)c2)oc2cc(O)cc(O)c12 [Compound 6, luteolin]	0.99 ± 0.07 ^a mmol Trolox/L			0.37 ± 0.05 ^b mmol Trolox/L		
85.13 ± 0.81 ^ab %	16.9 ± 0.67	3.04	COc1cc(O)c2c(=O)c(O)c(-c3ccc(O)c(O)c3)oc2c1 [Compound 7, rhamnetin]	0.92 ± 0.07 ^a mmol Trolox/L			0.33 ± 0.04 ^b mmol Trolox/L		
1.27 ± 0.25 ^e %			O=c1c(O)c(-c2ccc(O)c(O)c2)oc2cc(O)cc(O)c12 [Compound 8, quercetin]	1.05 ± 0.01 ^a mmol Trolox/L			0.01 ± 0.00 ^c mmol Trolox/L		
3.13 ± 4.06 ^e %		> 50	Cc1ccc2c(c1O)C(=O)c1cccc(O)c1C2=O [Compound 9, isozyganein]						
1.77 ± 4.08 ^e %		> 50	O=C1c2cc(CO)ccc2C(=O)c2c(O)cccc21 [Compound 10, 1-hydroxy-6-hydroxymethyl anthraquinone]	0.13± 0.00 ^c mmol Trolox/L			0.01 ± 0.01 ^c mmol Trolox/L		
53.04 ± 0.36 ^bc %			COc1cc(C)cc2c1C(=O)c1c(O)cc(O)cc1C2=O [Compound 12, 1-O-methylemodin]	0.03 ± 0.00 ^d mmol Trolox/L					
20.03 ± 2.44 ^c %	25.8 ± 0.57	> 50	Cc1cc2c(cc1O)C(=O)c1ccccc1C2=O [Compound 14, 3-hydroxy-2-methyl-9,10-anthraquinone]	0.09 ± 0.06 ^d mmol Trolox/L			0.03 ± 0.00 ^c mmol Trolox/L		
8.69 ± 1.94 ^de %		> 50	COc1ccc(/C=C/C=O)cc1O [Compound 17, 3-hydroxy-4-methoxycinnamaladehyde]	0.80 ± 0.01 ^a mmol Trolox/L					
57.40 ± 1.32 ^bc %	6.17 ± 0.06		COc1cc(C2Oc3c(OC)cc(CCCO)cc3C2CO)ccc1O (stereo not drawn) [Compound 19, rel-(2α,3β)-7-O-methylcedrusin]	0.85 ± 0.03 ^a mmol Trolox/L			0.25 ± 0.01 ^b mmol Trolox/L		5.0
20.58 ± 1.30 ^c %		> 50	COc1cc(O)c2c(c1O)C(=O)c1cc(C)ccc1C2=O [Compound 22, austrocortirubin]	0.32 ± 0.01 ^bc mmol Trolox/L					

Further lines, the compound ahead of its results:

SMILES	Inhibitory Rate (%) (α-glucosidase)	EC50 [2] [µM]	IC50 (α-glucosidase) [µM]	ABTS Assay ([1]; compounds at 50 μM)	ABTS Assay [1, 4]	DPPH Assay SC50 ([2]; methanolic extract and fractions, ascorbic acid positive control)	FRAP Assay ([3]; compounds at 50 μM)	FRAP Assay [3, 4]	concentration at which a protective effect against DNA oxidative damage begins (pBR322 DNA) [mM]
C[C@H]1O[C@H](O[C@H]2[C@H](O)[C@@H](O)[C@@H](O[C@H]3[C@H](O)[C@@H](O)C(O)O[C@@H]3CO)O[C@@H]2CO)[C@H](O)[C@@H](O)[C@@H]1N[C@H]1C=C(CO)[C@@H](O)[C@H](O)[C@H]1O (stereo partly drawn) [Acarbose, reference compound]	99.53 ± 0.01 ^a %								
O=C1O[C@H]([C@@H](O)CO)C(O)=C1O [Ascorbic acid, reference compound]		13.45 ± 0.02		0.85 ± 0.00 ^a mmol Trolox/L	0.99 ± 0.00 ^a mmol Trolox/L	3.39 ± 0.98 ^e µg/mL	1.01 ± 0.06 ^a mmol Trolox/L	1.35 ± 0.02 ^b mmol Trolox/L	
COc1ccc(-c2cc(=O)c3c(O)cc(O[C@@H]4O[C@H](C(=O)O)[C@@H](O)[C@H](O)[C@H]4O)cc3o2)cc1 [Compound 2, acacetin-7-O-β-glucuronide]	31.35 ± 6.46 ^c %	17.4 ± 1.08	> 50	0.92 ± 0.01 ^a mmol Trolox/L			0.03 ± 0.01 ^c mmol Trolox/L		
COC(=O)[C@H]1O[C@@H](Oc2cc(O)c3c(=O)cc(-c4ccc(O)cc4)oc3c2)[C@H](O)[C@@H](O)[C@@H]1O [Compound 4, apigenin-7-O-β-D-glucuronide methyl ester]	68.54 ± 2.90 ^b %	31.5 ± 1.75	14.2 ± 0.34	0.21 ± 0.01 ^b mmol Trolox/L			0.02 ± 0.00 ^c mmol Trolox/L		
COC(=O)[C@H]1O[C@@H](Oc2cc(-c3cc(=O)c4c(O)cc(O)cc4o3)ccc2O)[C@H](O)[C@@H](O)[C@@H]1O [Compound 5, vitegnoside]	69.67 ± 2.20 ^b %	9.92 ± 0.36	19.3	0.92 ± 0.00 ^a mmol Trolox/L			1.02 ± 0.01 ^a mmol Trolox/L		
O=C(O)C1OC(Oc2cc(-c3cc(=O)c4c(O)cc(O)cc4o3)ccc2O)C(O)C(O)C1O (stereo not drawn) [Compound 11, luteolin-3′-O-glucuronide]	4.57 ± 4.37 ^e %		> 50	0.65 ± 0.00 ^b mmol Trolox/L			0.01 ± 0.00 ^c mmol Trolox/L		
O=C(O)c1c[nH]c2ccccc12 [Compound 16, 1H-indole-3-carboxylic acid]	12.53 ± 0.76 ^d %	12.3 ± 0.53	> 50	0.78 ± 0.01 ^a mmol Trolox/L			0.28 ± 0.01 ^b mmol Trolox/L		
COc1cc(C(O)C(CO)Oc2c(OC)cc(/C=C/CO)cc2OC)cc(OC)c1O (stereo not drawn) [Compound 20, 7S,8R-syringylglycerol-8-O-4′-(synapyl alcohol) ether]	40.30 ± 0.76 ^c %	8.66 ± 0.43	> 50	0.67 ± 0.01 ^b mmol Trolox/L			0.29 ± 0.00 ^b mmol Trolox/L		
